Among the data in ChEMBL document CHEMBL3232773, “Peniphenones A-D from the mangrove fungus Penicillium dipodomyicola HN4-3A as inhibitors of Mycobacterium tuberculosis phosphatase MptpB” (J Nat Prod, 2014) are IC50 values, retold here.

A short description of the assay: Inhibition of Mycobacterium tuberculosis H37Rv full-length PTPB expressed in Escherichia coli […] using 6,8-difluoromethylumbelliferyl phosphate as substrate assessed as inhibition of substrate hydrolysis.
`CC(=O)c1cc(C)c(O)c(Cc2c(O)cc(-c3ccc(O)c(O)c3)oc2=O)c1O`: the IC50 is 160 nM. Under `CC(=O)c1cc(C)c(O)c(CC2=C(C)C(=O)C(O)=C(C)C2=O)c1O` stands 1370 nM; under SODIUM ORTHOVANAD, 82 nM.

As usually defined, the IC50 is the point on the concentration scale where inhibition reaches its midpoint.
